Legend:
[1] = tested on: Italian ryegrass; test: Test C postemergence herbicide test; type: in vivo, Lolium multiflorum
Description: (§1) At the same time, plants selected from these crop and weed species and also winter barley (Hordeum vulgare L.), blackgrass (Alopecurus myosuroides Huds.), canarygrass (Phalaris minor Retz.), chickweed (Stellaria media (L.) Vill.), downy bromegrass (Bromus tectorum L.), green foxtail (Setaria viridis (L.) Beauv.), Italian ryegrass (Lolium multiflorum Lam.), wheat (Triticum aestivum L.), wild oat (Avenafatua L.) and windgrass (Apera spica-venti (L.) Beauv.) were treated with postemergence applications of some of the test chemicals formulated in the same manner. Plants ranged in height from 2 to 18 cm (1- to 4-leaf stage) for postemergence treatments. Plant species in the flooded paddy test consisted of rice (Oryza sativa), smallflower umbrella sedge (Cyperus difformis L.), ducksalad (Heteranthera limosa (Sw.) Willd.) and barnyardgrass (Echinochloa crus-galli (L.) Beauv.) grown to the 2-leaf stage for testing. Treated plants and controls were maintained in a greenhouse for 12 to 14 days, after which time all species were compared to controls and visually evaluated. Plant response ratings, summarized in Table C, are based on a scale of 0 to 100 where 0 is no effect and 100 is complete control. A dash (-) response means no test result.

[2] = tested on: rice; test: Test B flooded paddy test; type: in vivo, Oryza sativa; settings: 1000 g ai/ha, scale 0 to 100 (0 no effect, 100 complete control)
In short: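 Scale 0–100: zero equals no visible effect, 100 complete control, judged by eye relative to controls. Timing: 13 to 15 days in greenhouse post-treatment. Growth stage at spraying: two leaves (paddy) or one to four leaves, 2–18 cm (postemergence).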

[3] = tested on: barnyardgrass; test: Test B flooded paddy test; type: in vivo, Echinochloa crus-galli; settings: 1000 g ai/ha, scale 0 to 100 (0 no effect, 100 complete control)
In short: (§2)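 Read-out: visual comparison with controls, scored 0 to 100, where 100 means complete control and 0 no effect. Formulated chemicals were applied postemergence to plants 2–18 cm tall (1- to 4-leaf), or to flooded-paddy plants at the 2-leaf stage, then held 13 to 15 days under glass.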

[4] = tested on: giant foxtail; test: Test B pre-/postemergence herbicide test; type: in vivo, Setaria faberi
In short: (§3)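 Formulation: non-phytotoxic solvent mix with surfactant. Timing: preemergence on seed and postemergence on 2–18 cm plants, applied concurrently. Readout after 13–15 d greenhouse: visual 0–100 control rating against controls.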

[5] = tested on: large crabgrass; test: Test B pre-/postemergence herbicide test; type: in vivo, Digitaria sanguinalis
In short: as §3

[6] = tested on: wheat; test: Test C postemergence herbicide test; type: in vivo, Triticum aestivum
Description: as §1

[7] = tested on: pigweed; test: Test B pre-/postemergence herbicide test; type: in vivo, Amaranthus retroflexus
In short: as §3

[8] = tested on: small flower umbrella sedge; test: Test B flooded paddy test; type: in vivo, Cyperus difformis; settings: 1000 g ai/ha, scale 0 to 100 (0 no effect, 100 complete control)
In short: as §2

[9] = tested on: blackgrass; test: Test B postemergence herbicide test; type: in vivo, Alopecurus myosuroides
In short: as §2

[10] = tested on: morningglory; test: Test B pre-/postemergence herbicide test; type: in vivo, Ipomoea coccinea
In short: (§4)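 Pre: seeds sown, then sprayed. Post: 1–4-leaf plants (2–18 cm) sprayed at the same time. Paddy: flooded, treated at 2-leaf stage. Formulation: non-phytotoxic solvent with surfactant. Greenhouse 13–15 days; visual 0–100 score relative to controls.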

[11] = tested on: ducksalad; test: Test B flooded paddy test; type: in vivo, Heteranthera limosa; settings: 1000 g ai/ha, scale 0 to 100 (0 no effect, 100 complete control)
In short: as §2

[12] = tested on: wild oat; test: Test C postemergence herbicide test; type: in vivo, Avenafatua
Description: as §1

[13] = tested on: winter barley; test: Test C postemergence herbicide test; type: in vivo, Hordeum vulgare
Description: as §1

[14] = tested on: blackgrass; test: Test C postemergence herbicide test; type: in vivo, Alopecurus myosuroides
Description: as §1

[15] = tested on: wheat; test: Test B postemergence herbicide test; type: in vivo, Triticum aestivum; set-up: key to Wheat plant response rating: 0 = no effect, 100 = complete control
In short: (§5)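 Postemergence plants were sprayed with formulated test chemicals at 2 to 18 cm height (1- to 4-leaf stage); paddy species were grown to the 2-leaf stage. After 13 to 15 days in a greenhouse, injury was rated visually against untreated controls on a 0–100 scale (0 = no effect, 100 = complete control).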

[16] = tested on: Surinam grass; test: Test B pre-/postemergence herbicide test; type: in vivo, Urochloa decumbens
In short: as §3

[17] = tested on: corn; test: Test B pre-/postemergence herbicide test; type: in vivo, Zea mays
In short: as §3

[18] = tested on: lambsquarters; test: Test B pre-/postemergence herbicide test; type: in vivo, Chenopodium album
In short: as §3

[19] = tested on: canarygrass; test: Test C postemergence herbicide test; type: in vivo, Phalaris minor
Description: as §1

[20] = tested on: windgrass; test: Test C postemergence herbicide test; type: in vivo, Apera spica-venti
Description: as §1

[21] = tested on: barnyardgrass; test: Test B pre-/postemergence herbicide test; type: in vivo, Echinochloa crus-galli; settings: for Barnyardgrass plant response rating: Postemergence, scale 0 (no effect) to 100 (complete control)
In short: as §4

[22] = tested on: downy bromegrass; test: Test C postemergence herbicide test; type: in vivo, Bromus tectorum
Description: as §1

[23] = tested on: green foxtail; test: Test C postemergence herbicide test; type: in vivo, Setaria viridis
Description: as §1

[24] = tested on: cocklebur; test: Test B pre-/postemergence herbicide test; type: in vivo, Xanthium strumarium
In short: as §4

[25] = tested on: velvetleaf; test: Test B pre-/postemergence herbicide test; type: in vivo, Abutilon theophrasti
In short: as §3

[26] = tested on: wild oat; test: Test B postemergence herbicide test; type: in vivo, Avena fatua
In short: as §5

[27] = Postemergence, 500 g ai/ha, scale 0 to 100, 0 no effect, 100 complete control
[28] = postemergence, 125 g ai/ha, scale 0 to 100
[29] = postemergence, 62 g ai/ha, scale 0 to 100
[30] = 125 g ai/ha, 0 is no effect, 100 is complete control, preemergence
[31] = Postemergence, 500 g ai/ha, scale 0 (no effect) to 100 (complete control)
[32] = Postemergence, 500 g ai/ha, scale 0 to 100
[33] = Postemergence, 250 g ai/ha, scale 0 to 100, 0 no effect, 100 complete control

Compound: C=CCN(CC=C)C(=O)c1cccc(NC(=O)c2nn(C(C)(C)C)nc2CC)c1 [Compound 415]
- Plant response rating, Ryegrass, Italian [1, 27]: 45
- Plant response rating, Ryegrass, Italian [1, 28]: 40
- Plant response rating, Ryegrass, Italian [1, 29]: 30
- Rice plant response rating [2]: 50
- Barnyardgrass plant response rating [3]: 60
- Plant response rating (0 to 100 scale), Foxtail, Giant [4, 30]: 20
- Foxtail, Giant plant response rating [4, 31]: 40
- Foxtail, Giant plant response rating [4, 28]: 20
- Plant response rating (0 to 100 scale), Crabgrass, Large [5, 30]: 70
- Crabgrass, Large plant response rating [5, 31]: 50
- Crabgrass, Large plant response rating [5, 28]: 20
- Plant response rating, Wheat [6, 27]: 30
- Plant response rating, Wheat [6, 28]: 25
- Plant response rating, Wheat [6, 29]: 20
- Plant response rating (0 to 100 scale), Pigweed [7, 30]: 60
- Pigweed plant response rating [7, 31]: 90
- Pigweed plant response rating [7, 28]: 70
- Sedge, Umbrella plant response rating [8]: 80
- Blackgrass plant response rating [9, 31]: 40
- Blackgrass plant response rating [9, 28]: 30
- Plant response rating (0 to 100 scale), Morningglory [10, 30]: 0
- Morningglory plant response rating [10, 31]: 40
- Morningglory plant response rating [10, 28]: 10
- Ducksalad plant response rating [11]: 80
- Plant response rating, Oat, Wild [12, 27]: 55
- Plant response rating, Oat, Wild [12, 28]: 45
- Plant response rating, Oat, Wild [12, 29]: 40
- Barley, Winter plant response rating [13, 32]: 45
- Plant response rating, Barley, Winter ([13]; Postemergence, 125 g ai/ha, scale 0 to 100, 0 no effect, 100 complete control): 35
- Plant response rating, Barley, Winter [13, 33]: 35
- Plant response rating, Barley, Winter ([13]; postemergence, 62 g ai/ha, scale 0 to 100 (0 no effect, 100 complete control)): 35
- Blackgrass plant response rating [14, 32]: 65
- Plant response rating, Blackgrass [14, 33]: 60
- Plant response rating, Blackgrass [14, 28]: 60
- Plant response rating, Blackgrass [14, 29]: 50
- Wheat plant response rating ([15]; 500 g ai/ha, scale 0 to 100, 0 no effect, 100 complete control, preemergence): 30
- Wheat plant response rating [15, 31]: 30
- Wheat plant response rating [15, 28]: 20
- Plant response rating (0 to 100 scale), Surinam Grass [16, 30]: 20
- Surinam Grass plant response rating [16, 31]: 30
- Surinam Grass plant response rating [16, 28]: 10
- Plant response rating (0 to 100 scale), Corn [17, 30]: 0
- Corn plant response rating [17, 31]: 20
- Corn plant response rating [17, 28]: 20
- Plant response rating (0 to 100 scale), Lambsquarters [18, 30]: 50
- Lambsquarters plant response rating [18, 31]: 80
- Lambsquarters plant response rating [18, 28]: 70
- Plant response rating, Canarygrass [19, 33]: 55
- Plant response rating, Canarygrass [19, 27]: 65
- Plant response rating, Canarygrass [19, 28]: 50
- Plant response rating, Canarygrass [19, 29]: 45
- Plant response rating, Windgrass [20, 27]: 65
- Plant response rating, Windgrass [20, 28]: 50
- Plant response rating, Windgrass [20, 29]: 50
- Plant response rating (0 to 100 scale), Barnyardgrass [21, 30]: 10
- Barnyardgrass plant response rating ([21]; 125 g ai/ha): 20
- Barnyardgrass plant response rating ([21]; 500 g ai/ha): 20
- Plant response rating, Bromegrass, Downy [22, 33]: 60
- Plant response rating, Bromegrass, Downy [22, 27]: 65
- Plant response rating, Bromegrass, Downy [22, 28]: 60
- Plant response rating, Bromegrass, Downy [22, 29]: 60
- Plant response rating, Foxtail, Green [23, 33]: 50
- Plant response rating, Foxtail, Green [23, 27]: 60
- Plant response rating, Foxtail, Green [23, 28]: 50
- Plant response rating, Foxtail, Green [23, 29]: 45
- Plant response rating (0 to 100 scale), Cocklebur [24, 30]: 0
- Cocklebur plant response rating [24, 31]: 50
- Cocklebur plant response rating [24, 28]: 30
- Plant response rating (0 to 100 scale), Velvetleaf [25, 30]: 20
- Velvetleaf plant response rating [25, 31]: 50
- Velvetleaf plant response rating [25, 28]: 30
- Oat, Wild plant response rating [26, 31]: 40
- Oat, Wild plant response rating [26, 28]: 30

— patent publication US20060069132A1, “Azolecarboxamide herbicides” (priority 2004, published 2006)
